# Results published in patent publication US20230398161A1 (priority 2020, published 2023).
# What was measured:
# [1] = tested on: Escherichia coli (E. coli) strain ATCC 700928; test: Urinary tract infection model in C3H/OuJ mice, CK570: E. coli burden (CFU) in tissues; settings: positive control, IV, all timepoints assessed
# Procedure: The vehicle used in this study was 1×TBS.
# C3H/OuJ female mice, aged approximately 8 weeks and weighing 21 to 24 grams, were used in this study. Mice were housed with 1 to 5 animals per cage and were provided food (5P76 Prolab isopro irradiated lab diet) and water ad libitum.
# Mice were anesthetized with 1-4% isoflurane in oxygen for 2-3 minutes until a deep plane of anesthesia was achieved, confirmed by toe pinch reflex. Each mouse was then placed on a board, ventral side up, with the nose inserted into a nose cone supplying isoflurane. The lower abdomen was gently massaged to expel any urine in the bladder. […] For IV administration, mice were manually restrained in a restrainer device, and study treatment was administered via the lateral tail vein. A dose volume of 100 μL was used for IV injections. For IU administration, the same method was used as for the original administration of E. coli. A dose volume of 50 μL was used for IU administration.
# All CFU data were log-transformed.
# [2] = tested on: 300-strain clinical isolate panel with an additional 4 strains; test: Host range of CK618 and antibiotics alone and in combination, 304-isolate panel; assay type: cell-based, E. coli; settings: antibiotic at concentration printed after name plus CK618
# Procedure: (§1) The first assay used a panel of 88 contemporaneous urinary tract infection (UTI) isolates from North America, Europe, Latin America, and Asia. […] The second assay used a panel made up of a 300-strain clinical isolate panel (Table 14) with an additional 4 strains of interest. […] Four of the same SOC antibiotics tested against the 88-isolate panel were tested against this panel. The non-SOC antibiotics were not included due to their limited use in clinical settings, and nitrofurantoin was not included due to the low probability of resistance to this drug.
# (§2) For both isolate panels, antibiotic concentrations tested were determined by using Clinical and Laboratory Standards Institute (CLSI) or European Committee on Antimicrobial Susceptibility Testing (EUCAST) breakpoints at concentrations that kill susceptible isolates but allow intermediate or resistant isolates to grow in the standard AST microdilution assay (Table 17).
# (§3) The cocktail was then mixed with bacteria to obtain final titers of 1×10^6 plaque-forming unit (PFU)/mL/phage for the cocktail and 1×10^5 colony-forming unit (CFU)/mL for the bacteria, resulting in a multiplicity of infection (MOI) of 10 for each phage in a sample. […] Reactions were incubated at 37° C. with shaking and OD measurements were taken each hour for 20 hours.
# [3] = tested on: 88 contemporaneous urinary tract infection (UTI) isolates; assay type: cell-based, E. coli; settings: both isolate panels, Tables 18, 19
# Procedure: as §1, §2, §3
Molecule,bacterial burden in each tissue [1],"Host range % on all strains (n = 304), Combination: Antibiotic + LBP-CK618 [2]",host range on MDR and beta-lactam-resistant strains compared with all strains (in words) [3],host range performance on all strains (in words) [3]
O=C(O)c1cn(C2CC2)c2cc(N3CCNCC3)c(F)cc2c1=O [Ciprofloxacin],significantly reduced bacterial burden to the LOD,,,
C[C@@H]1O[C@@H]1P(=O)(O)O [Fosfomycin],,97.0%,performed similarly regardless of antibiotic resistance status,strong activity across all strains
Trimethoprim/Sulfamethoxazole [TMP/SXT],,81.9%,,
